Test results from the NIST ThermoML archive (doi:10.1021/je9004036).
“And” between values parts separate entries of the source, which are not always exact repeats. Equal values may be shown once.

Tests used:
[1] = for vapor or sublimation pressure: Liquid, Calculated from knudsen effusion weight loss; for Normal melting temperature: Crystal, DTA
[2] = Molar enthalpy of transition or fusion; details: Crystal 1; DSC

COc1cc(N)cc(C(=O)O)c1 [3-amino-5-methoxybenzoic acid]
[1]
Details | vapor or sublimation pressure
380.16 K | 0.000125 kPa and 0.000123 kPa
381.19 K | 0.000138 kPa and 0.000135 kPa and 0.000131 kPa
383.18 K | 0.000174 kPa and 0.000164 kPa and 0.000156 kPa
385.16 K | 0.000201 kPa and 0.000217 kPa and 0.000208 kPa
387.2 K | 0.000269 kPa and 0.000253 kPa and 0.000242 kPa
389.16 K | 0.000325 kPa and 0.000316 kPa and 0.000301 kPa
393.19 K | 0.000511 kPa and 0.00049 kPa and 0.000473 kPa
395.18 K | 0.000631 kPa and 0.000591 kPa and 0.00057 kPa
397.18 K | 0.000773 kPa
399.19 K | 0.000917 kPa and 0.000887 kPa and 0.000862 kPa
400.18 K | 0.001003 kPa and 0.00094 kPa and 0.000926 kPa

Details | Molar enthalpy of transition or fusion [kcal/mol] | Normal melting temperature [°C]
[1] | – | 183.79
[2] | 5.35 | –

COc1ccc(N)c(C(=O)O)c1 [2-amino-5-methoxybenzoic acid]
[1]
Details | vapor or sublimation pressure
353.13 K | 0.0001 kPa and 0.000101 kPa
355.15 K | 0.000131 kPa and 0.000128 kPa and 0.00013 kPa
357.2 K | 0.000159 kPa and 0.000158 kPa
359.18 K | 0.000202 kPa and 0.000196 kPa and 0.000195 kPa
361.15 K | 0.000251 kPa and 0.000249 kPa and 0.000252 kPa
363.2 K | 0.000316 kPa and 0.000304 kPa and 0.000306 kPa
365.18 K | 0.000384 kPa and 0.000376 kPa
367.16 K | 0.000479 kPa and 0.000458 kPa and 0.000447 kPa
369.18 K | 0.000577 kPa and 0.000562 kPa and 0.000553 kPa
371.14 K | 0.000723 kPa and 0.000704 kPa and 0.000716 kPa
373.17 K | 0.000898 kPa and 0.000864 kPa and 0.000856 kPa
375.17 K | 0.001076 kPa and 0.001049 kPa and 0.001039 kPa

Details | Molar enthalpy of transition or fusion [kcal/mol] | Normal melting temperature [°C]
[1] | – | 151.81
[2] | 5.47 | –

COc1cc(C(=O)O)ccc1N [4-amino-3-methoxybenzoic acid]
[1]
Details | vapor or sublimation pressure
373.14 K | 0.000103 kPa and 0.000102 kPa
375.15 K | 0.00013 kPa and 0.000127 kPa and 0.000126 kPa
377.18 K | 0.000163 kPa and 0.000156 kPa and 0.000153 kPa
379.17 K | 0.000192 kPa and 0.000186 kPa and 0.000196 kPa
381.17 K | 0.00025 kPa and 0.00024 kPa and 0.000232 kPa
383.18 K | 0.000301 kPa
385.16 K | 0.000384 kPa and 0.000376 kPa and 0.000374 kPa
387.17 K | 0.000476 kPa and 0.000455 kPa and 0.000444 kPa
389.16 K | 0.000587 kPa and 0.000573 kPa and 0.00057 kPa
391.17 K | 0.000724 kPa and 0.000696 kPa and 0.000678 kPa
393.17 K | 0.000864 kPa and 0.000841 kPa and 0.000826 kPa
395.17 K | 0.001037 kPa and 0.001005 kPa and 0.000971 kPa

Details | Molar enthalpy of transition or fusion [kcal/mol] | Normal melting temperature [°C]
[1] | – | 189.20
[2] | 6.04 | –

COc1ccc(C(=O)O)cc1N [3-amino-4-methoxybenzoic acid]
[1]
Details | vapor or sublimation pressure
379.67 K | 0.00014 kPa and 0.000138 kPa and 0.000135 kPa
381.72 K | 0.000174 kPa and 0.000169 kPa and 0.000164 kPa
383.68 K | 0.000215 kPa and 0.000205 kPa and 0.000199 kPa
385.16 K | 0.000247 kPa and 0.000252 kPa
387.19 K | 0.000306 kPa and 0.000298 kPa and 0.00029 kPa
389.18 K | 0.000382 kPa and 0.000363 kPa and 0.000353 kPa
391.17 K | 0.000455 kPa
393.21 K | 0.000568 kPa and 0.000557 kPa and 0.000536 kPa
395.18 K | 0.000698 kPa and 0.000676 kPa
397.2 K | 0.000832 kPa and 0.000811 kPa and 0.000786 kPa
399.18 K | 0.001028 kPa and 0.000967 kPa and 0.000941 kPa

Details | Molar enthalpy of transition or fusion [kcal/mol] | Normal melting temperature [°C]
[1] | – | 204.72
[2] | 6.06 | –

COc1cccc(C(=O)O)c1N [2-amino-3-methoxybenzoic acid]
[1]
Details | vapor or sublimation pressure
349.12 K | 0.000123 kPa and 0.000121 kPa
351.18 K | 0.000152 kPa and 0.00015 kPa and 0.000149 kPa
353.19 K | 0.000194 kPa and 0.000186 kPa and 0.000183 kPa
355.13 K | 0.000235 kPa and 0.000232 kPa and 0.000234 kPa
357.18 K | 0.000297 kPa and 0.000285 kPa and 0.000283 kPa
359.12 K | 0.000362 kPa and 0.000356 kPa and 0.000355 kPa
360.13 K | 0.000407 kPa and 0.000404 kPa and 0.0004 kPa
361.16 K | 0.000446 kPa and 0.000437 kPa and 0.000431 kPa
363.18 K | 0.000552 kPa and 0.000537 kPa and 0.000527 kPa
367.18 K | 0.000847 kPa and 0.000823 kPa and 0.000808 kPa
369.18 K | 0.001031 kPa and 0.001004 kPa and 0.000983 kPa

Details | Molar enthalpy of transition or fusion [kcal/mol] | Normal melting temperature [°C]
[1] | – | 169.86
[2] | 5.79 | –
